A short description of the series: Shampoo-fastness test on dyed locks. As to the method:
A shampoo-fastness test was performed on the locks of hair dyed with dyes 1 and 2 obtained under the conditions described above. The dyed locks were subjected to 20 shampoo washes according to a cycle comprising wetting the locks with water, washing with shampoo, rinsing with water, and then drying.
The degradation of the color after x shampoo washes was estimated according to the following formula:
[formula] [formula] [formula] [formula] [formula] wherein a*ctrl, b*ctrl, and L*ctrl are the values of a*, b*, and L* of the non-dyed lock; a*dyed, b*dyed, and L*dyed are the values of a*, b*, and L* of the dyed lock before shampooing, whereas a*xSh, b*xSh, and L*xSh are the values of a*, b*, and L* of the dyed lock after x shampoo washes.

Where [1] appears, read: permanent-waved lock, after 5 shampoo washes.
The mark [2] stands for this setting: permanent-waved lock, after 12 shampoo washes.
Where [3] appears, read: permanent-waved lock, after 18 shampoo washes.
Setting [4] is: permanent-waved lock, after 20 shampoo washes.

We go through two molecules from patent US7399319B2, “Dyeing composition comprising a dye chosen from styryl and imine dyes and methods for dyeing keratin fibers” (L'Oreal S.A., priority 2005, dated 2008).

SMILES strings stand for the structures.

On to `CN(C)c1ccc(C=CC=CC23OCCN2c2ccccc2C3(C)C)cc1` (stereo not drawn) [Dye 2], for which the “% degradation” value is, setting by setting: (natural lock, after 5 shampoo washes) 4%; (natural lock, after 12 shampoo washes) 14%; (natural lock, after 18 shampoo washes) 18%; (natural lock, after 20 shampoo washes) 20%; under setting [1], 6%; under setting [2], 6%. In addition, the “% degradation” value reads like this: under setting [3], 7%; under setting [4], 11%.
Regarding `CN(C)c1ccc(C=CC23OCCN2c2ccccc2C3(C)C)cc1` (stereo not drawn) [Dye 1], the “% degradation” value reads like this: under setting [1], 10%; under setting [2], 17%; under setting [3], 18%; under setting [4], 24%.
